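96-well plates; 48 h exposure; 5 concentrations. Endpoints by linear interpolation between flanking doses. Not reached: highest tested concentration assigned. Here, GI50 denotes the concentration required for 50% inhibition of growth.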 Active and inactive are the calls of the source. Cut-off read from the data, not from the text of the source: active = GI50 up to about 1.1 µM and inactive = higher.
Assays:
Assay in all cases: NCI-60 cell line screen, 48 h
[1] = tested on: CCRF-CEM
[2] = tested on: TK-10
[3] = tested on: CAKI-1
[4] = tested on: A498
[5] = tested on: MDA-MB-435
[6] = tested on: DU-145
[7] = tested on: HL-60
[8] = tested on: OVCAR-3
[9] = tested on: A549
[10] = tested on: SK-MEL-2
[11] = tested on: U-251
[12] = tested on: MCF7
[13] = tested on: Malme-3M
[14] = tested on: SF-295
[15] = tested on: SNB-75
[16] = tested on: SW-620
[17] = tested on: HT-29
[18] = tested on: PC-3
[19] = tested on: RXF 393
[20] = tested on: OVCAR-4

Row | SMILES | GI50 [1] | GI50 [2] | GI50 [3] | GI50 [4] | GI50 [5] | GI50 [6] | GI50 [7] | GI50 [8] | GI50 [9] | GI50 [10] | GI50 [11] | GI50 [12] | GI50 [13] | GI50 [14] | GI50 [15] | GI50 [16] | GI50 [17] | GI50 [18] | GI50 [19] | GI50 [20]
1 | CCOC(=O)/C=C(\C(=O)OCC)n1cc(C)c(=O)n(Cc2cnnn2CCCCOC(C)=O)c1=O | 0.661 µM (active) | 5.94 µM (inactive) | 3.23 µM (inactive) | 22.2 µM (inactive) | 7.69 µM (inactive) | > 41.7 µM (inactive) | 1.91 µM (inactive) | 13.3 µM (inactive) | 24.5 µM (inactive) | 22.1 µM (inactive) | 17.3 µM (inactive) | 4.78 µM (inactive) | 1.82 µM (inactive) | 32.1 µM (inactive) | 18 µM (inactive) | 2.32 µM (inactive) | 5.98 µM (inactive) | 16.4 µM (inactive) | 2.7 µM (inactive) | 19.2 µM (inactive)
2 | Nc1nc(N)nc(CCCc2nc(N)nc(N)n2)n1 | > 100 µM (inactive) | > 100 µM (inactive) | > 100 µM (inactive) | > 100 µM (inactive) | > 100 µM (inactive) | > 100 µM (inactive) | > 100 µM (inactive) | > 100 µM (inactive) | > 100 µM (inactive) | > 100 µM (inactive) | > 100 µM (inactive) | > 100 µM (inactive) | > 100 µM (inactive) | > 100 µM (inactive) | > 100 µM (inactive) | > 100 µM (inactive) | > 100 µM (inactive) | > 100 µM (inactive) | > 100 µM (inactive) | > 100 µM (inactive)
3 | Nc1c(C(=O)c2ccc(Cl)cc2)[nH]c(Nc2ccc(Cl)cc2)c1C(=S)Nc1ccccc1 | 6.27 µM (inactive) | 5.4 µM (inactive) | 6.05 µM (inactive) | 12.7 µM (inactive) | 7.14 µM (inactive) | 5.41 µM (inactive) | 49.5 µM (inactive) | 3.19 µM (inactive) | 3.21 µM (inactive) | 11.7 µM (inactive) | 2.97 µM (inactive) | 4.41 µM (inactive) | 8.34 µM (inactive) | 2.38 µM (inactive) | 3 µM (inactive) | 6.43 µM (inactive) | 4.99 µM (inactive) | 10.6 µM (inactive) | 2.7 µM (inactive) | 2.08 µM (inactive)
4 | COC(=O)[C@@H]1c2cc3c(c(O)c2[C@@H](OC2OC(C)C(OC)C(C)(OC)C2OC)C[C@]1(C)O)C(=O)c1c(O)cc2c(c1C3=O)O[C@H]1O[C@]2(C)[C@H](O)[C@@H](N(C)C)[C@@H]1O (some centres not stated) | 0.0114 µM (active) | 0.0297 µM (active) | 0.0419 µM (active) | 0.000507 µM (active) | 0.0612 µM (active) | 0.0859 µM (active) | 0.0148 µM (active) | 0.0351 µM (active) | 0.0156 µM (active) | 0.00337 µM (active) | 0.00766 µM (active) | 0.033 µM (active) | 0.00453 µM (active) | 0.0154 µM (active) | 0.00608 µM (active) | 0.00456 µM (active) | 0.00815 µM (active) | 0.0468 µM (active) | 0.0132 µM (active) | 0.0191 µM (active)
5 | O=C1NC(=O)/C(=C/c2ccc(S(=O)(=O)N/N=C\C(O)C(O)C(O)C(O)CO)cc2)N1 (configuration not stated) | > 100 µM (inactive) | > 100 µM (inactive) | > 100 µM (inactive) | > 100 µM (inactive) | > 100 µM (inactive) | > 100 µM (inactive) | > 100 µM (inactive) | > 100 µM (inactive) | > 100 µM (inactive) | > 100 µM (inactive) | > 100 µM (inactive) | > 100 µM (inactive) | > 100 µM (inactive) | > 100 µM (inactive) | > 100 µM (inactive) | > 100 µM (inactive) | > 100 µM (inactive) | > 100 µM (inactive) | > 100 µM (inactive) | > 100 µM (inactive)
6 | [O-][S+]1SC(=S)C2C=CC=NC21 (configuration not stated) | > 100 µM (inactive) | 18.1 µM (inactive) | > 100 µM (inactive) | 27.6 µM (inactive) | > 100 µM (inactive) | 16.6 µM (inactive) | > 100 µM (inactive) | 20.6 µM (inactive) | 19.2 µM (inactive) | 19.4 µM (inactive) | 18 µM (inactive) | 17.5 µM (inactive) | 17.3 µM (inactive) | 22.4 µM (inactive) | 18.7 µM (inactive) | > 100 µM (inactive) | 16.1 µM (inactive) | 16.8 µM (inactive) | 18.3 µM (inactive) | > 100 µM (inactive)
7 | Cn1c(=O)c2c(nc(C(=N)SCC(=O)O)n2C)n(C)c1=O | 5.57 µM (inactive) | 40.6 µM (inactive) | 26 µM (inactive) | 26.9 µM (inactive) | 29.2 µM (inactive) | 61.2 µM (inactive) | 27.7 µM (inactive) | 43.5 µM (inactive) | 39.5 µM (inactive) | 39.2 µM (inactive) | 95.9 µM (inactive) | 38.5 µM (inactive) | 45.1 µM (inactive) | 52.7 µM (inactive) | 41.2 µM (inactive) | 52.1 µM (inactive) | 48.2 µM (inactive) | 48.4 µM (inactive) | 53.1 µM (inactive) | 24.4 µM (inactive)
8 | CCCCCCCCCCCCCCCC(=O)N(CCCCCCCCCCC(=O)O)CC(O)C(O)C(OC1OC(CO)C(O)C(O)C1O)C(O)CO (configuration not stated) | 26.5 µM (inactive) | > 100 µM (inactive) | 64 µM (inactive) | > 100 µM (inactive) | 49.4 µM (inactive) | 91 µM (inactive) | 22.6 µM (inactive) | > 100 µM (inactive) | > 100 µM (inactive) | 19 µM (inactive) | 18 µM (inactive) | 53.6 µM (inactive) | 19.5 µM (inactive) | 15.6 µM (inactive) | 38.9 µM (inactive) | 22.1 µM (inactive) | 22.8 µM (inactive) | 37.8 µM (inactive) | 48.1 µM (inactive) | 60.3 µM (inactive)
9 | O=C1OC[C@@H]2Cc3c([nH]c4ccccc34)[C@@H](c3ccc(O)cc3)N12 | 30.1 µM (inactive) | 34.7 µM (inactive) | 42.8 µM (inactive) | 41.7 µM (inactive) | 24.7 µM (inactive) | 40.3 µM (inactive) | 45 µM (inactive) | 17.4 µM (inactive) | 26.8 µM (inactive) | 22 µM (inactive) | 39.2 µM (inactive) | 36.6 µM (inactive) | 27.2 µM (inactive) | 26.4 µM (inactive) | 17 µM (inactive) | 54.1 µM (inactive) | 34.9 µM (inactive) | 24 µM (inactive) | 17.3 µM (inactive) | 32.4 µM (inactive)
10 | CC[C@@H]1CN(C)[C@H]2Cc3c([nH]c4ccccc34)C(=O)C[C@H]1C2C(=O)OC (some centres not stated) | 96.6 µM (inactive) | > 58.9 µM (inactive) | > 100 µM (inactive) | > 100 µM (inactive) | > 100 µM (inactive) | > 100 µM (inactive) | > 89.3 µM (inactive) | > 100 µM (inactive) | > 100 µM (inactive) | > 100 µM (inactive) | > 100 µM (inactive) | > 100 µM (inactive) | > 100 µM (inactive) | > 54.2 µM (inactive) | > 91.4 µM (inactive) | > 100 µM (inactive) | > 100 µM (inactive) | > 100 µM (inactive) | > 77.8 µM (inactive) | > 31.6 µM (inactive)
11 | CCOC(=O)/C(=C\c1ccc(F)cc1)C(C)=O | 26.3 µM (inactive) | 21.6 µM (inactive) | 24.3 µM (inactive) | 17.8 µM (inactive) | 30.1 µM (inactive) | 23.2 µM (inactive) | 19.5 µM (inactive) | 32.8 µM (inactive) | 45.3 µM (inactive) | 21.2 µM (inactive) | 19.1 µM (inactive) | 29.4 µM (inactive) | 19.2 µM (inactive) | 29.5 µM (inactive) | 25.1 µM (inactive) | 16.5 µM (inactive) | 24.4 µM (inactive) | 17.1 µM (inactive) | 17 µM (inactive) | 28 µM (inactive)
12 | CC1(C)OC[C@@H](O)[C@H](Br)CO1 | > 100 µM (inactive) | > 100 µM (inactive) | > 100 µM (inactive) | > 100 µM (inactive) | > 100 µM (inactive) | > 100 µM (inactive) | > 100 µM (inactive) | > 100 µM (inactive) | – | > 100 µM (inactive) | > 100 µM (inactive) | > 100 µM (inactive) | > 100 µM (inactive) | > 100 µM (inactive) | > 100 µM (inactive) | > 100 µM (inactive) | > 100 µM (inactive) | > 100 µM (inactive) | > 100 µM (inactive) | > 100 µM (inactive)
13 | O=C1c2n[nH]nc2C(=O)c2n[nH]nc21 | > 100 µM (inactive) | > 100 µM (inactive) | > 100 µM (inactive) | > 100 µM (inactive) | > 100 µM (inactive) | > 100 µM (inactive) | > 100 µM (inactive) | > 100 µM (inactive) | > 100 µM (inactive) | > 100 µM (inactive) | > 100 µM (inactive) | > 100 µM (inactive) | – | > 100 µM (inactive) | > 100 µM (inactive) | > 100 µM (inactive) | > 100 µM (inactive) | > 100 µM (inactive) | > 100 µM (inactive) | > 100 µM (inactive)
14 | CC(C)CC(NC(=O)C(CCI)Cc1ccccc1)C(=O)Nc1ccccc1 (configuration not stated) | 30.1 µM (inactive) | 88.7 µM (inactive) | > 100 µM (inactive) | > 100 µM (inactive) | 58.5 µM (inactive) | > 100 µM (inactive) | 18 µM (inactive) | > 100 µM (inactive) | 80.9 µM (inactive) | > 100 µM (inactive) | > 100 µM (inactive) | 39.7 µM (inactive) | > 100 µM (inactive) | > 100 µM (inactive) | 93.8 µM (inactive) | 49.8 µM (inactive) | – | 51.1 µM (inactive) | > 100 µM (inactive) | > 100 µM (inactive)
